The values that follow come from patent US7517884B2 (Kalypsys Inc., priority 1998, dated 2009).

The structures appear in SMILES notation.

The target of one test is T1, PPAR-alpha (UniProt Q07869).
T1 sequence (Q07869 1-468): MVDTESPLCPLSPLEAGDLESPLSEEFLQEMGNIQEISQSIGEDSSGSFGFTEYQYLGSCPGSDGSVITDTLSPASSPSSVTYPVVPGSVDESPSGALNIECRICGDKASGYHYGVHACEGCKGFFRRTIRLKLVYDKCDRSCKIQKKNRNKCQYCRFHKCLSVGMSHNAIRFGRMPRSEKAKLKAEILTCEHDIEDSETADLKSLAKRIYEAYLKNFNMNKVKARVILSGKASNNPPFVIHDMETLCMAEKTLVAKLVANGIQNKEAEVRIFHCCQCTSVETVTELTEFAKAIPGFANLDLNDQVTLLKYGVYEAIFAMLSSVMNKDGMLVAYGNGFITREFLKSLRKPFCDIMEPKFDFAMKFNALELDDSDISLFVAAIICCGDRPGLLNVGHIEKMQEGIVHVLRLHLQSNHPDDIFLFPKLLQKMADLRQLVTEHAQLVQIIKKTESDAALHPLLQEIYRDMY
Description: PPAR-alpha transactivation assay (GAL4 chimera, luciferase reporter) in CV-1 cells. Format: cell-based, murine and human. The following applies: GAL4-PPAR LBD chimera. The gist of the method:
(§1)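 CV-1 cells transiently transfected with murine or human PPAR-alpha, -gamma or -delta ligand-binding domain fused to GAL4 DNA-binding domain plus a GAL4-site luciferase reporter. After replating in phenol-red-free DME with 5% delipidated calf serum, cells were exposed to compound 20-24 h; luciferase read-out gave EC50.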
On the technique in general: Reporter assays use an easily measured gene product as a stand-in for the process of interest.

In the next test the target is T2, PPAR-delta (UniProt Q03181).
T2 sequence (Q03181 1-441): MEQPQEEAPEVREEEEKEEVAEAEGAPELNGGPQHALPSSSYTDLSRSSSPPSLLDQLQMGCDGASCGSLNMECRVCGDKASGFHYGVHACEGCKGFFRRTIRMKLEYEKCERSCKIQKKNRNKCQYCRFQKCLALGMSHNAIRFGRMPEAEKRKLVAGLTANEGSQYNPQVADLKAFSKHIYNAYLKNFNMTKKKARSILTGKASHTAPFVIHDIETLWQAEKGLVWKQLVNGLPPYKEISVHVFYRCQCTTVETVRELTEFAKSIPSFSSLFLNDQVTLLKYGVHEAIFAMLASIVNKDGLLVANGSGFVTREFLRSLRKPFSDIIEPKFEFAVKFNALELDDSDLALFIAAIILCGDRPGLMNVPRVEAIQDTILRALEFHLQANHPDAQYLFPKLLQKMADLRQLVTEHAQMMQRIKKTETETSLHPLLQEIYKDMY
Description: PPAR-delta transactivation assay (GAL4 chimera, luciferase reporter) in CV-1 cells. Format: cell-based, murine and human. The following applies: GAL4-PPAR LBD chimera. The gist of the method:
as §1

Another test addresses T3, PPAR-gamma (UniProt P37231).
T3 sequence (P37231 1-505): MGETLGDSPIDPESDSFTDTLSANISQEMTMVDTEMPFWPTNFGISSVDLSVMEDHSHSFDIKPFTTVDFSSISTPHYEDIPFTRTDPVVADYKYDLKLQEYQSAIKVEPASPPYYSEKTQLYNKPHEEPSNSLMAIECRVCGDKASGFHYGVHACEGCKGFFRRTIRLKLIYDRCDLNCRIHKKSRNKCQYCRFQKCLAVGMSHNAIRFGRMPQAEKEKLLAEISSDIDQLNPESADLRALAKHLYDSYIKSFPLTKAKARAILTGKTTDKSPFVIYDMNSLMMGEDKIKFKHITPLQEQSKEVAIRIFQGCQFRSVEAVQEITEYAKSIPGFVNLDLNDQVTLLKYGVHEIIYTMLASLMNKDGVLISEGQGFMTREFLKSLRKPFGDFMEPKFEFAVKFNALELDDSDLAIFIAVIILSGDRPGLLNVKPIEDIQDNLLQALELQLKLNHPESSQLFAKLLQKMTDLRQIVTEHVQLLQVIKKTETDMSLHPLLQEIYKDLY
The test can be described thus: PPAR-gamma transactivation assay (GAL4 chimera, luciferase reporter) in CV-1 cells. In kind it is cell-based, murine and human. The note with it: GAL4-PPAR LBD chimera. The gist of the method: as §1

In test [1] the test system is Diet-Induced Obesity (DIO) in Mice. The test can be described thus: Model of Diet-Induced Obesity (DIO) in mice, dose ranging study. Format: in vivo, C57B1/6j mice. The following applies: HFD, 1.5 mg/kg BID. The source says: Evaluation of Pharmacological Efficacy of a Compound of the Invention in a Model of Diet-Induced Obesity (DIO) in Mice
Metabolic syndrome in humans is characterized by abdominal obesity, high triglycerides, impaired fasting glucose and hyperinsulinemia. In the DIO model, mice are fed high fat diet (HFD, Research diet D12492, Research Diet, NJ) diet (58% lard) for the entire period of the study. Compared to normal chow (NC, Harlan-Tekland #8604, WI) fed animals the HF fed mice develop several features of metabolic syndrome such as, hypertriglyceridemia, hyperinsulinemia and mild hyperglycemia, as early as two weeks, on this diet. […] This model was used to evaluate the pharmacological effects of a compound of the invention selected from the group consisting of Examples 1-141 (referred to for the purposes of this study as “Compound (I)”) in mitigating several features of HFD induced metabolic syndrome in rodents.
C57B1/6j mice (n=5) were fed ad libitum with either the HFD (58% fat) or NC (5%) diet for 3 weeks prior to start of experiment, and throughout the course of the experiment (45 days). Starting on Day 1, mice were dosed BID with either Compound (I)+vehicle, vehicle alone, or GW501516, a known PPARδ modulator in clinical development by Glaxo-Wellcome, for the entire period of the study. Animals were the assessed for body weight gain, food intake, triglyceride (TG), insulin, and glucose levels under fasting and postprandial (PP) conditions. Animals were weighed twice weekly in the morning to determine body weight gain. Plasma or serum was separated from whole blood (Sarstedt) and TG levels were assayed with a TG kit (Thermo Electron Corporation, TX). Plasma insulin levels were assayed using the ultrasensitive mouse Insulin ELISA immunoassay (American Laboratory Products Company). Total cholesterol, HDLc and LDLc was measured to evaluate pharmacological efficacy at various time points during the study and serum transaminases were measured to evaluate any potential toxicity of the compound. These measurements were performed with a chemistry analyzer at Labcorp of America, NC.

What is called EC50 is the concentration that produces a half-maximal response. High values mean a need for much substance, low ones an effect from little substance.

With `COc1cc(N2C[C@@H](C)N(S(=O)(=O)c3cccc4c3CC(C(=O)O)C4)[C@@H](C)C2)ccc1Cl` (stereo partly drawn) [Example 133, 4-|4-(4-Chloro-3-methoxyphenyl)-cis-2,6-dimethylpiperazine-1-ylsulfonyl|-2,3-dihydro-1H-indene-2-carboxylic acid], the results for the EC50 at PPAR-alpha, on PPAR-delta and on PPAR-gamma were > 100 µM, < 5 µM and > 100 µM, respectively.
For `C[C@@H]1CN(c2ccc(Cl)c(C(F)(F)F)c2)C[C@H](C)N1S(=O)(=O)c1cccc2c1CC(C(=O)O)C2` (stereo partly drawn) [Example 134], the EC50 was > 100 µM on PPAR-alpha, < 5 µM on PPAR-delta and > 100 µM on PPAR-gamma.
`Cc1cc(N2C[C@@H](C)N(S(=O)(=O)c3cccc4c3CC(C(=O)O)C4)[C@@H](C)C2)ccc1Cl` (stereo partly drawn) [Example 135, 4-|4-(4-Chloro-3-methylphenyl)-cis-2,6-dimethylpiperazin-1-ylsulfonyl|-2,3-dihydro-1H-indene-2-carboxylic acid]: the figures for the EC50 at PPAR-alpha, at PPAR-delta and on PPAR-gamma were > 100 µM, < 5 µM and > 100 µM, respectively.
For the compound `CCc1ccc(N2C[C@@H](C)N(S(=O)(=O)c3cccc4c3CC(C(=O)O)C4)[C@@H](C)C2)cc1` (stereo partly drawn) [Example 136, 4-|4-(4-Ethylphenyl)-cis-2,6-dimethylpiperazin-1-ylsulfonyl|-2,3-dihydro-1H-indene-2-carboxylic acid], the figures for the EC50 at PPAR-alpha, on PPAR-delta and at PPAR-gamma were > 100 µM, < 5 µM and > 100 µM, respectively.
As to `Cc1ccc(N2C[C@@H](C)N(S(=O)(=O)c3cccc4c3CC(C(=O)O)C4)[C@@H](C)C2)cc1C` (stereo partly drawn) [Example 137, 4-|4-(3,4-Dimethylphenyl)-cis-2,6-dimethylpiperazin-1-ylsulfonyl|-2,3-dihydro-1H-indene-2-carboxylic acid], the EC50 was > 100 µM on PPAR-alpha, < 5 µM at PPAR-delta and > 100 µM on PPAR-gamma.
Take `Cc1cc(SCc2sc(-c3ccc(C(F)(F)F)cc3)nc2C)ccc1OCC(=O)O` [GW516]: in test [1], the “% change in body weight (d0 vs d40)” value was determined as 10.6%, the Insulin worked out at 1.3 ± 0.3 ng/mL and the TG is 268 ± 56 mg/dL.
